Measurements taken from US10278931B2, “Composition for treatment of inflammatory bowel disease and atopic dermatitis” (INNOPHARMASCREEN INC., priority 2015, dated 2019).

Experiments:
[1] = molecular target: T1, human recombinant caspase-1 (Homo sapiens, UniProt P29466); test: Recombinant caspase-1 activity assay (kit); format: biochemical; details: caspase-1 assay kit
T1 sequence (P29466 120-404): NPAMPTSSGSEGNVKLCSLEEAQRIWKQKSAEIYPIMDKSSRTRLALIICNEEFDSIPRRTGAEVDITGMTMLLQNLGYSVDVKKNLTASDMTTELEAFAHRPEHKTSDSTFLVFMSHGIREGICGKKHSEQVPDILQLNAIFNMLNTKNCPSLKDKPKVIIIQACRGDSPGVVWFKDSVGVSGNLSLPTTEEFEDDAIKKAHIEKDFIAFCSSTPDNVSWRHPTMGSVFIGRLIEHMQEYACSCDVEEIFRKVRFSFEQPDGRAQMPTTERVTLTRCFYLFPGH
Procedure: (4) Caspase-1 assay: Recombinant caspase-1 and a drug were allowed to react, and then activity measurement was performed using a caspase-1 assay kit (R&D Systems Inc., Minneapolis, Minn., USA).
Recombinant caspase-1 and a drug were allowed to react, and then activity was measured using a caspase-1 assay kit (R&D Systems Inc., Minneapolis, Minn., USA).

TSLP mRNA = TSLP mRNA expression (RT-PCR) in HMC-1 cells; format: cell-based, human
Procedure: (1) Cell culture: A human mast cell line (HMC-1) was cultured in an IMDM supplemented with 10% FBS at 37° C. and 5% CO2. Candidate materials were dissolved in DMSO, and then filtered using a 0.22 μm filter. The resulting candidate materials were diluted with DMSO and the HMC-1 cells were treated therewith.
(5) Reverse transcription-polymerase chain reaction (RT-PCR) quantitative real time PCR: Total RNA was isolated from cells and tissues, and cDNA was synthesized using a reverse transcriptase and was then reacted with cytokine primers to be analyzed, followed by PCR and real-time PCR. The RT-PCR products were subjected to electrophoresis using 1.5% agarose gel for analysis.

SD rats = test: Acute dermal toxicity test; format: in vivo; details: for Number of death on day 1 / Number of death on day 2 / Number of death on day 3 / Number of death on day 4 / Number of death on day 5 / Number of death on day 6 / Number of death on day 7 / Number of death on day 8-14 / Number of death on day 0: dose group 200 (head μg/kg bw); for Number of death on day 0: single transdermal
Procedure: (1) Environmental Conditions: In the present experiment, experimental animals were bred in a clean animal breeding room (small animal room #2-302) at Hoseo University Safety Evaluation Center, set under environmental conditions: temperature of 22±3° C.; relative humidity of 50±20%; ventilation frequency of 10 to 15 times/hour; illumination period of 12 hours; and illuminance of 150 Lux to 300 Lux.
(2) Cages and rugs: Two or three animals per sex were accommodated in each of polycarbonate cages (270×500×200 mm, KYERYONG SCIENCE) with a stainless steel mesh lid during an acclimation period, and after group division, 1 animal per sex was accommodated therein. As the rugs, sterile betachips (NEPCO) irradiated with gamma rays were used.
(3) Feed and drinking water: The animals were fed freely a mouse feed for laboratory, animals (5053-Picolab Rodent 20) manufactured by PMI Nutrition International, and filtered water treated with ultraviolet sterilization (R/O water) was freely supplied as drinking water.
(4) Examination of contaminant in feed and drinking water: Contaminants in the feed were examined by receiving a test result from the feed manufacturer, and the quality of drinking water was checked for contamination by regular inspection according to the corresponding SOP of the present test institute and it was confirmed that there were no contaminants.
(A) About 24 hours before administration, hairs on the dorsal part was removed such that the hair-removed site accounted for about 10% or more of the entire surface area thereof, and attention was paid not to injure the skin.
(B) On the day of administration, a dosage for each individual was calculated, and then a test material was sufficiently wetted with a solvent and then applied on the site corresponding to about 10% (about 44 cm) of the entire surface area.
(C) The test material was kept in contact with the skin using a porous gauze, a non-irritating tape, and a bandage during the 24-hour exposure period.
(D) When the exposure period was terminated, the remaining test material was removed using tepid water.
(A) General symptom observation: All animals were observed intensively from 30 minutes to 4 hours after administration, and general symptoms were observed once a day for 14 days. At the time of observation, death and clinical symptoms were recorded on an individual basis.
(B) Body weight measurement: All animals were measured at the time of receipt, at the time of group division, immediately before administration (day of administration), and on day 1, day 4, day 7, day 10, and day 14 after initiation of administration.
(C) Autopsy: During the test, dead animals were immediately autopsied and organs were inspected with the naked eye, and at the end of the test, all living animals were euthanized by CO2 gas inhalation and venesectioned, and then the organs visually examined.
(E) Statistical analysis: Body weight data were expressed as mean and standard deviation, and no statistical analysis of body weight was performed.

Cl.N=C(N)NC(=N)Nc1ccc(Cl)cc1 [IPS-07001]
recombinant caspase-1 activity [1]: significantly inhibited | TSLP mRNA expression (TSLP mRNA): significantly inhibited | Number of death on day 1 (SD rats; Female): 0 | Number of death on day 2 (SD rats; Female): 0 | Number of death on day 3 (SD rats; Female): 0 | Number of death on day 4 (SD rats; Female): 0 | Number of death on day 5 (SD rats; Female): 0 | Number of death on day 6 (SD rats; Female): 0 | Number of death on day 7 (SD rats; Female): 0 | Number of death on day 8-14 (SD rats; Female): 0 | Number of death on day 0 (SD rats; Female): 0 | Number of death on day 1 (SD rats; Male): 0 | Number of death on day 2 (SD rats; Male): 0 | Number of death on day 3 (SD rats; Male): 0 | Number of death on day 4 (SD rats; Male): 0 | Number of death on day 5 (SD rats; Male): 0 | Number of death on day 6 (SD rats; Male): 0 | Number of death on day 7 (SD rats; Male): 0 | Number of death on day 8-14 (SD rats; Male): 0 | Number of death on day 0 (SD rats; Male): 0 | dead animals during the test period (SD rats; all test material-administered groups, 14 days): No dead animals | Gross findings (internal and external) (SD rats; rat, in vivo): NGF ^a) | body weight from day 2 (SD rats; rat, in vivo): normal body weight increase pattern | body weight on day 1 after administration (SD rats; rat, in vivo): decrease in body weight | clinical symptoms, 4 hour (SD rats; rat, in vivo): NCS | clinical symptoms, Day 1 (SD rats; rat, in vivo): NCS | clinical symptoms, Day 2 (SD rats; rat, in vivo): NCS | clinical symptoms, Day 3 (SD rats; rat, in vivo): NCS | clinical symptoms, Day 4 (SD rats; rat, in vivo): NCS | clinical symptoms, Day 5 (SD rats; rat, in vivo): NCS | clinical symptoms, Day 6 (SD rats; rat, in vivo): NCS | clinical symptoms, Day 7 (SD rats; rat, in vivo): NCS | clinical symptoms, Day 8 (SD rats; rat, in vivo): NCS | clinical symptoms, Day 9 (SD rats; rat, in vivo): NCS | clinical symptoms, Day 10-14 (SD rats; rat, in vivo): NCS | visual pathological examination (autopsy) (SD rats; surviving animals after observation period): no individual showed any abnormalities
